Tested on: MDA-MB-231 cells
Test: Migration assay of MDA-MB-231 cells
Type: cell-based, human
Method: Migration assay: MDA-MB-231 cells were grown in 60 mm diameter dishes and treated as described in “Cell culture and compound treatment” for 12 h. The medium was then removed and replaced with growth medium lacking FBS but with the same concentration of compound. After 12 h of serum starvation, the cells were detached and seeded to ThinCert™ (GBO) 24-well hanging inserts with 8 μm pores (˜5×10^4 cells per insert). Fresh growth medium with FBS was dispended in a 24-well plate (600 μL each well), and the ThinCert™ hanging inserts containing cells were then placed into the wells. After incubating for 24 h, the growth medium in the inserts was removed, and the remaining cells were washed twice with 1×DPBS. Cells were fixed by addition of 3% (w/v) paraformaldehyde (PFA) prepared in 1×DPBS at room temperature for 20 min. The PFA solution was removed, and cells were washed twice with 1×PBS. The cells were then stained with Crystal Violet (10 mg/mL; 4:1 H2O: MeOH) at room temperature for 20 min. A cotton swab was used to gently remove non-migrating cells from the top side of the filter. The remaining cells were then imaged by microscopy and counted for quantification (3 fields of view per sample).

C#CCN(CC(N)=O)C(=O)C[C@H](Cc1c[nH]c2ccccc12)NC(=O)[C@@H]1C[C@H](NC(=O)Cn2c(=O)[nH]c3ccccc3c2=O)CN1 [Compound 9]
number of migrated cells (MDA-MB-231, normalized to vehicle): dose dependent reduction | concentration with statistically significant phenotype reduction (MDA-MB-231 migration): 100 nM
